Experimental findings from US20130217664A1, “NOVEL COMPOUNDS USEFUL FOR THE TREATMENT OF DEGENERATIVE AND INFLAMMATORY DISEASES” (priority 2012, published 2013) are described below.

Some results are limits rather than exact numbers.

Common to all, as to type: biochemical
One assay has as its target T1, human JAK3 (Homo sapiens, UniProt P52333).
T1 construct: catalytic domain (amino acids 781-1124; catalog number PV3855); purchased Invitrogen PV3855
The experiment in a line: JAK3 inhibition assay. Particulars: recombinant human JAK3 catalytic domain; polyGT substrate. The procedure: 1.3 JAK3 Inhibition Assay
0.5 ng JAK3 protein was incubated with 2.5 μg polyGT substrate (Sigma catalog number P0275) in kinase reaction buffer (25 mM Tris pH 7.5, 0.5 mM EGTA, 10 mM MgCl2, 2.5 mM DTT, 0.5 mM Na3VO4, 5 mM b-glycerolphosphate, 0.01% Triton X-100, 1 μM non-radioactive ATP, 0.25 μCi 33P-gamma-ATP (GE Healthcare, catalog number AH9968) final concentrations) with or without 5 μL containing test compound or vehicle (DMSO, 1% final concentration), in a total volume of 25 μL, in a polypropylene 96-well plate (Greiner, V-bottom). After 45 min at 30° C., reactions were stopped by adding 25 μL/well of 150 mM phosphoric acid. […] Plates were washed 6 times with 300 μL per well of a 75 mM phosphoric acid solution and the bottom of the plates was sealed. 40 μL/well of Microscint-20 was added, the top of the plates was sealed and readout was performed using the Topcount (Perkin Elmer). Kinase activity was calculated by subtracting counts per min (cpm) obtained in the presence of a positive control inhibitor (10 μM staurosporine) from cpm obtained in the presence of vehicle. The ability of a test compound to inhibit this activity was determined as:
(§1) Percentage inhibition=((cpm determined for sample with test compound present−cpm determined for sample with positive control inhibitor)divided by(cpm determined in the presence of vehicle−cpm determined for sample with positive control inhibitor))*100.
Dose dilution series were prepared for the compounds enabling the testing of dose-response effects in the JAK3 assay and the calculation of the IC50 for each compound. Each compound was routinely tested at concentration of 20 μM followed by a 1/5 serial dilution, 10 points in a final concentration of 1% DMSO.

A further assay concerns the target T2, human TYK2 (Homo sapiens, UniProt P29597).
T2 construct: catalytic domain (amino acids 871-1187; catalog number 08-147); purchased Carna Biosciences 08-147
T2 sequence (P29597 871-1187): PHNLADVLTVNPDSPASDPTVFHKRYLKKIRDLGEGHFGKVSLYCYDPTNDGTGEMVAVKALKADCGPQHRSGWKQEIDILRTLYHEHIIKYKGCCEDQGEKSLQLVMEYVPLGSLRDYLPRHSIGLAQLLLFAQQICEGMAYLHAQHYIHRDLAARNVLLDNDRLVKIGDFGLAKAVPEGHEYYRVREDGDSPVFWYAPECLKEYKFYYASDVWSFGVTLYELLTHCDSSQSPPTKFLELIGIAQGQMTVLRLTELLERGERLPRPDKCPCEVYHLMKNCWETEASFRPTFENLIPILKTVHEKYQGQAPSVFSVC
The experiment in a line: TYK2 inhibition assay. The note with it: recombinant human TYK2 catalytic domain, polyGT substrate. The procedure:
1.4 TYK2 Inhibition Assay
After 90 min at 30° C., reactions were stopped by adding 25 μL/well of 150 mM phosphoric acid. […] Plates were washed 6 times with 300 μL per well of a 75 mM phosphoric acid solution and the bottom of the plates was sealed. 40 μL/well of Microscint-20 was added, the top of the plates was sealed and readout was performed using the Topcount (Perkin Elmer). Kinase activity was calculated by subtracting counts per min (cpm) obtained in the presence of a positive control inhibitor (10 μM staurosporine) from cpm obtained in the presence of vehicle. The ability of a test compound to inhibit this activity was determined as:
as §1
Dose dilution series were prepared for the compounds enabling the testing of dose-response effects in the TYK2 assay and the calculation of the IC50 for each compound.

The target of the next assay is T3, human JAK1 (Homo sapiens, UniProt P23458).
T3 construct: catalytic domain, amino acids 866-1154; catalog number PV4774; purchased Invitrogen PV4774
The experiment in a line: JAK1 inhibition assay (polyGT substrate / Ulight-JAK1 peptide). Particulars: recombinant human JAK1 catalytic domain; polyGT or Ulight-JAK1 peptide assay. On the procedure: 1.1 JAK1 Inhibition Assay
1.1.1 JAK1 Assay polyGT Substrate
After 45 min at 30° C., reactions are stopped by adding of 25 μL/well of 150 mM phosphoric acid. […] Plates are washed 6 times with 300 μL per well of a 75 mM phosphoric acid solution and the bottom of the plates is sealed. 40 μL/well of Microscint-20 is added, the top of the plates is sealed and readout is performed using the Topcount (Perkin Elmer). Kinase activity is calculated by subtracting counts per min (cpm) obtained in the presence of a positive control inhibitor (10 μM staurosporine) from cpm obtained in the presence of vehicle. The ability of a test compound to inhibit this activity is determined as:
as §1
Dose dilution series are prepared for the compounds enabling the testing of dose-response effects in the JAK1 assay and the calculation of the IC50 for each compound.
1.1.2 JAK1 Ulight-JAK1 Peptide Assay
After 60 min at room temperature, reactions were stopped by adding 20 μL/well of detection mixture (1× detection buffer (Perkin Elmer, catalog number CR97-100C), 0.5 nM Europium-anti-phosphotyrosine (PT66) (Perkin Elmer, catalog number AD0068), 10 mM EDTA). […] Kinase activity was calculated by subtracting relative fluorescence units (RFU) obtained in the presence of a positive control inhibitor (10 μM staurosporine) from RFU obtained in the presence of vehicle. The ability of a test compound to inhibit this activity was determined as:
Percentage inhibition=((RFU determined for sample with test compound present−RFU determined for sample with positive control inhibitor)divided by(RFU determined in the presence of vehicle−RFU determined for sample with positive control inhibitor))*100.
Dose dilution series were prepared for the compounds enabling the testing of dose-response effects in the JAK1 assay and the calculation of the IC50 for the compound. Each compound is routinely tested at concentration of 20 μM followed by a 1/5 serial dilution, 10 points in a final concentration of 1% DMSO. […] The data are expressed as the average IC50 from the assays±standard error of the mean.

As a reminder, the IC50 is the concentration at which inhibition is half-maximal.

T3 sequence (P23458 866-1154): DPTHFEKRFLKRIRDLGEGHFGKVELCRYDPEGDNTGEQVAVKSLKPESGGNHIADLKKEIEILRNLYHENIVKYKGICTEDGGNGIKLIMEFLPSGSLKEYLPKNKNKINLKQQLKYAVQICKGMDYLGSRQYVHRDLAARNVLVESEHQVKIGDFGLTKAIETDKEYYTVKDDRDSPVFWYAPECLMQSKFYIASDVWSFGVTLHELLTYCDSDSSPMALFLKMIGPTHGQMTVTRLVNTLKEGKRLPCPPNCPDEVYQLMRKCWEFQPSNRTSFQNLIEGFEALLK
T1 sequence (P52333 781-1124): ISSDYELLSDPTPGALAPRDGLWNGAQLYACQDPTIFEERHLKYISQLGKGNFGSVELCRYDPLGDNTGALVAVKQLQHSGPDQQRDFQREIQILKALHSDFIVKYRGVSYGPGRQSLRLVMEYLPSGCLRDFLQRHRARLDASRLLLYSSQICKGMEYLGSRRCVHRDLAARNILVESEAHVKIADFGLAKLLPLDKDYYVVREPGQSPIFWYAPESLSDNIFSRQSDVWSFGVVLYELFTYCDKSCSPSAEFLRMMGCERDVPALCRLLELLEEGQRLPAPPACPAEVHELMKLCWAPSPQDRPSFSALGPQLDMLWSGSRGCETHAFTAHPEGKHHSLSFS

Regarding `CCc1ccccc1N(C)c1cc2c(cn1)ncn2C` [Compound 16, (2-Ethyl-phenyl)-methyl-(1-methyl-1H-imidazo[4,5-c]pyridin-6-yl)-amine], the IC50 is 501 to 1000 nM at human JAK3 and 101 to 500 nM on human TYK2.

Take `CCc1cc(-c2ccc(OC)nc2)ccc1N(C)c1cc2c(cn1)ncn2C` [Compound 130, N-(2-ethyl-4-(6-methoxypyridin-3-yl)phenyl)-N,1-dimethyl-1H-imidazo[4,5-c]pyridin-6-amine]: the IC50 at human JAK1 lay within 0.01 to 100 nM; on human JAK3 it was 101 to 500 nM; on human TYK2, 0.01 to 100 nM.

Consider `CCc1cc(C(=O)NCC(C)(C)O)ccc1N(C)c1cc2c(cn1)ncn2C` [Compound 161, 3-ethyl-N-(2-hydroxy-2-methylpropyl)-4-(methyl(1-methyl-1H-imidazo[4,5-c]pyridin-6-yl)amino)benzamide], for which the 50% inhibitory concentration (IC50) on human JAK1 is 101 to 500 nM; at human JAK3, above 1000 nM; on human TYK2, above 1000 nM.

For `CCc1cc(-c2ccc(C#N)cc2)ccc1N(C)c1cc2c(cn1)ncn2C` [Compound 162, 3′-ethyl-4′-(methyl(1-methyl-1H-imidazo[4,5-c]pyridin-6-yl)amino)biphenyl-4-carbonitrile], the IC50 fell in the range of 0.01 to 100 nM on human JAK1, 101 to 500 nM at human JAK3 and 0.01 to 100 nM on human TYK2.

`CCc1cc(C(=O)NCC2CCCCN2C)ccc1N(C)c1cc2c(cn1)ncn2C` (centres unmarked) [Compound 165, 3-ethyl-4-(methyl(1-methyl-1H-imidazo[4,5-c]pyridin-6-yl)amino)-N-((1-methylpiperidin-2-yl)methyl)benzamide]: the IC50 was 101 to 500 nM at human JAK1, above 1000 nM on human JAK3 and above 1000 nM on human TYK2.

Turning to `CCc1cc(C(=O)NC2(C#N)CCN(C)CC2)ccc1N(C)c1cc2c(cn1)ncn2C` [Compound 166, N-(4-cyano-1-methylpiperidin-4-yl)-3-ethyl-4-(methyl(1-methyl-1H-imidazo[4,5-c]pyridin-6-yl)amino)benzamide], the IC50 on human JAK1 was 0.01 to 100 nM; at human JAK3, above 1000 nM; on human TYK2 it was above 1000 nM.

Turning to `CCc1cc(C(=O)NC#N)ccc1N(C)c1cc2c(cn1)ncn2C` [Compound 179, N-Cyano-3-ethyl-4-(methyl(1-methyl-1H-imidazo[4,5-c]pyridin-6-yl)amino)benzamide], the IC50 lay in the range of 0.01 to 100 nM on human JAK1, 101 to 500 nM on human JAK3 and 0.01 to 100 nM at human TYK2.

Regarding `CCc1cc(O[C@H]2CCN(S(C)(=O)=O)C2)ccc1N(C)c1cc2c(cn1)ncn2C` [Compound 260, (S)-N-(2-ethyl-4-(1-(methylsulfonyl)pyrrolidin-3-yloxy)phenyl)-N,1-dimethyl-1H-imidazo[4,5-c]pyridin-6-amine], the half-inhibitory concentration (IC50) on human JAK1 fell in the range of 0.01 to 100 nM; on human JAK3, 101 to 500 nM; at human TYK2, 101 to 500 nM.

For `COc1cc(-c2cccs2)ncc1N(C)c1cc2c(cn1)ncn2C` [Compound 264], the IC50 at human JAK1 is 0.01 to 100 nM; at human JAK3, 101 to 500 nM; on human TYK2, 0.01 to 100 nM.

`CCc1cc(-c2ccsc2)ncc1N(C)c1cc2c(cn1)ncn2C` [Compound 288, (4-Ethyl-6-thiophen-3-yl-pyridin-3-yl)-methyl-(1-methyl-1H-imidazo[4,5-c]pyridin-6-yl)-amine]: the IC50 on human JAK1, on human JAK3 and at human TYK2 was 0.01 to 100 nM each time.

Take `CCc1cc(-c2cccs2)ncc1N(C)c1cc2c(cn1)ncn2C` [Compound 289]: the IC50 at human JAK1, at human JAK3 and on human TYK2 was 0.01 to 100 nM in each case.

Consider `CCc1cc(C2CN(S(C)(=O)=O)C2)ccc1N(C)c1cc2c(cn1)ncn2C` [Compound 290, [2-Ethyl-4-(1-methanesulfonyl-azetidin-3-yl)-phenyl]-methyl-(1-methyl-1H-imidazo[4,5-c]pyridin-6-yl)-amine], for which the half-inhibitory concentration (IC50) at human JAK1, at human JAK3 and at human TYK2 was 0.01 to 100 nM in each case.

For the compound `CCc1cc(CNC2CCN(C(=O)OC(C)(C)C)C2)ccc1N(C)c1cc2c(cn1)ncn2C` (centres unmarked) [Compound 291, 3-{3-Ethyl-4-[methyl-(1-methyl-1H-imidazo[4,5-c]pyridin-6-yl)-amino]-benzylamino}-pyrrolidine-1-carboxylic acid tert-butyl ester], the figures for the IC50 on human JAK1, on human JAK3 and on human TYK2 were 0.01 to 100 nM, above 1000 nM and 101 to 500 nM, respectively.

With `CCc1cc(CN(C)S(=O)(=O)C2CC2)ccc1N(C)c1cc2c(cn1)ncn2C` [Compound 292, Cyclopropanesulfonic acid {3-ethyl-4-[methyl-(1-methyl-1H-imidazo[4,5-c]pyridin-6-yl)-amino]-benzyl}-methyl-amide], the IC50 at human JAK1 lay in the range of 0.01 to 100 nM; on human JAK3, 0.01 to 100 nM; at human TYK2, 101 to 500 nM.

Take `CCc1cc(CNC2CCNC2)ccc1N(C)c1cc2c(cn1)ncn2C` (centres unmarked) [Compound 293, [2-Ethyl-4-(pyrrolidin-3-ylaminomethyl)-phenyl]-methyl-(1-methyl-1H-imidazo[4,5-d]pyridin-6-yl)-amine]: the IC50 at human JAK1 is 0.01 to 100 nM; on human JAK3, above 1000 nM; on human TYK2, above 1000 nM.

Regarding `CCc1cc(CN(C)S(=O)(=O)CC)ccc1N(C)c1cc2c(cn1)ncn2C` [Compound 294, Ethanesulfonic acid {3-ethyl-4-[methyl-(1-methyl-1H-imidazo[4,5-c]pyridin-6-yl)-amino]-benzyl}-methyl-amide], the IC50 at human JAK1, at human JAK3 and at human TYK2 was 0.01 to 100 nM each time.
